The values below come from paper PMC7248693, “Synthesis and Biological Evaluation of 2-Substituted Benzyl-/Phenylethylamino-4-amino-5-aroylthiazoles as Apoptosis-Inducing Anticancer Agents” (Molecules, 2020).

One series relates to SK-MEL-1. Put plainly: Antiproliferative activity, MTT assay, SK-MEL-1 cells. The format is cell-based, human. Particulars: for IC50: Homo sapiens, SK-MEL-1, 72 h, MTT, mean ± SE, at least three independent experiments. The text has this:
(§1) In Table 1, we summarize the antiproliferative activity of the 15 novel 2-arylalkylamino-4-amino-5-(3′,4′,5′-trimethoxybenzoyl)thiazole derivatives 8a–o against human leukemia (U-937) and melanoma (SK-MEL-1) tumor cells lines.
(§2) Human U-937 and SK-MEL-1 cell lines were from the German Collection of Microorganisms and Cell Cultures (Braunschweig, Germany; DSMZ No: ACC 5 and ACC 303, respectively). The U-937 is a myeloid leukemia cell line isolated from a histiocytic lymphoma. SK-MEL-1 is a melanoma cell line. Cells were cultured in suspension in RPMI 1640 medium supplemented with 10% (v/v) fetal bovine serum and antibiotics (100 μg mL^−1 streptomycin and 100 U mL^−1 penicillin), at 37 °C in a humidified atmosphere containing 5% CO2. The trypan blue exclusion method was used for counting the cells by a hemocytometer, and cell viability was always greater than 95% in all experiments. Compounds were dissolved in DMSO, and further dilutions were made in culture medium just before use. […] The effects on cell viability of synthetic compounds were determined using a colorimetric assay with the reduction of 3-(4,5-dimethyl-2-thiazolyl-)-2,5-diphenyl-2H-tetrazolium bromide (MTT) as previously described. Briefly, 5 × 10^3 cells were seeded in 96-well microculture plates with increasing concentrations of compounds for 72 h. Then, MTT (0.5 mg mL^−1) was added and incubated for 4 h, and the reaction was stopped with 20% sodium dodecyl sulfate. A570 was used as a measure of cell viability. Concentrations inducing a 50% inhibition of cell growth were determined graphically by nonlinear regression using the curve-fitting algorithm of GraphPad Prism 4.0 (GraphPad Inc La Jolla, CA, USA).
On the technique in general: Tetrazolium assays rely on reduction of a dye to a coloured formazan, in cell work by metabolically active cells.

A further series concerns U-937. Put plainly: Antiproliferative activity, MTT assay, U-937 cells. The format is cell-based, human. To be noted: for IC50: Homo sapiens, U-937, 72 h, MTT, mean ± SE, at least three independent experiments; for fold more potent than p-methoxy counterpart 8j: antiproliferative activity, cell line not specified (U-937 and SK-MEL-1).
Excerpt: as §1, §2

As a reminder, the IC50 is the concentration at which inhibition is half-maximal. Read a low IC50 as greater potency in that assay. In the case of `COc1ccc(-c2nc(N)c(C(=O)c3cc(OC)c(OC)c(OC)c3)s2)cc1` [1a, reference compound], the IC50 was 48.3 ± 4.6 µM in the series with SK-MEL-1 and 34.3 ± 2.2 µM in the series with U-937.
As to `COc1ccc(Nc2nc(N)c(C(=O)c3cc(OC)c(OC)c(OC)c3)s2)cc1` [2a, reference compound], the 50% inhibitory concentration (IC50) in the series with SK-MEL-1 was 5.2 ± 1.4 µM; in the series on U-937, 0.484 ± 0.368 µM.
What is called melting point is the temperature of the solid-liquid transition. In turn, `COc1cc(C(=O)c2sc(NCc3ccccc3)nc2N)cc(OC)c1OC` [8a, (4-Amino-2-(benzylamino)thiazol-5-yl)(3,4,5-trimethoxyphenyl)methanone] yielded a melting point of 147 to 149 °C. This molecule yielded an IC50 with SK-MEL-1 of 14.2 ± 9.7 µM. In the series with U-937, this molecule yielded an IC50 of 21.1 ± 5.1 µM.
The like results for `COc1cc(C(=O)c2sc(NCCc3ccccc3)nc2N)cc(OC)c1OC` [8b, (4-Amino-2-(phenethylamino)thiazol-5-yl)(3,4,5-trimethoxyphenyl)methanone] were, in that order, 135 to 138 °C, 20.5 ± 6.9 µM and 19.3 ± 5.6 µM.
With `COc1cc(C(=O)c2sc(NCCCc3ccccc3)nc2N)cc(OC)c1OC` [8c, (4-Amino-2-((3-phenylpropyl)amino)thiazol-5-yl)(3,4,5-trimethoxyphenyl)methanone], the IC50 with SK-MEL-1 stood at 16.7 ± 7 µM; in the series on U-937, 10.7 ± 2.8 µM. Moreover, the “increase in potency relative to 8a and 8b” value in the series with U-937 (U-937 cells) is 2 fold.
Take `COc1cc(C(=O)c2sc(NCc3ccc(F)cc3)nc2N)cc(OC)c1OC` [8d, (4-Amino-2-((4-fluorobenzyl)amino)thiazol-5-yl)(3,4,5-trimethoxyphenyl)methanone]: the melting point fell in the range of 132 to 134 °C. This molecule also returned a 50% inhibitory concentration (IC50) in the series with SK-MEL-1 of 51 ± 1.4 µM. The concentration for half-maximal inhibition (IC50) with U-937 came out at 39.1 ± 4.2 µM.
As for `COc1cc(C(=O)c2sc(NCc3ccc(Cl)cc3)nc2N)cc(OC)c1OC` [8e, (4-Amino-2-((4-chlorobenzyl)amino)thiazol-5-yl)(3,4,5-trimethoxyphenyl)methanone], the melting point lay within 156 to 159 °C. In the series with SK-MEL-1, this molecule showed a concentration for half-maximal inhibition (IC50) of 8.3 ± 5.5 µM. Further, the “fold more potent than 8f” value in the series on SK-MEL-1 (SK-MEL-1 cells) came to 1.5 fold. This molecule also registered an IC50 in the series with U-937 of 8.7 ± 5.4 µM.
`COc1cc(C(=O)c2sc(NCc3ccc(Br)cc3)nc2N)cc(OC)c1OC` [8g, (4-Amino-2-((4-bromobenzyl)amino)thiazol-5-yl)(3,4,5-trimethoxyphenyl)methanone] displayed a melting point of 154 to 157 °C. Inhibition in the series with SK-MEL-1 was half-maximal at 15.7 ± 4.9 µM (IC50). Moreover, in the series with U-937, the IC50 came out at 12.9 ± 3.3 µM.
The like results for `COc1cc(C(=O)c2sc(NCc3ccc(C)cc3)nc2N)cc(OC)c1OC` [8h, (4-Amino-2-((4-methylbenzyl)amino)thiazol-5-yl)(3,4,5-trimethoxyphenyl)methanone] were, in that order, 145 to 147 °C, 19 ± 9.4 µM and 15.4 ± 4.9 µM.
Taken in the same sequence, the figures for `COc1cc(C(=O)c2sc(NCc3cccc(C)c3)nc2N)cc(OC)c1OC` [8i, (4-Amino-2-((3-methylbenzyl)amino)thiazol-5-yl)(3,4,5-trimethoxyphenyl)methanone] were 150 to 152 °C, 16.7 ± 5.6 µM and 18.1 ± 6.4 µM.
The like results for `COc1ccc(CNc2nc(N)c(C(=O)c3cc(OC)c(OC)c(OC)c3)s2)cc1` [8j, (4-Amino-2-((4-methoxybenzyl)amino)thiazol-5-yl)(3,4,5-trimethoxyphenyl)methanone] were, in that order, 131 to 135 °C, 22.9 ± 13.7 µM and 23.8 ± 5.2 µM.
`COc1cccc(CNc2nc(N)c(C(=O)c3cc(OC)c(OC)c(OC)c3)s2)c1` [8l, (4-Amino-2-((3-methoxybenzyl)amino)thiazol-5-yl)(3,4,5-trimethoxyphenyl)methanone] showed a melting point of 125 to 128 °C. In the series on SK-MEL-1, this molecule yielded a half-inhibitory concentration (IC50) of 12.4 ± 4.8 µM. In the series with U-937, the 50% inhibitory concentration (IC50) came to 12.3 ± 6.1 µM and the “fold more potent than p-methoxy counterpart 8j” value is reported as 2 fold.
Take `COc1ccccc1CNc1nc(N)c(C(=O)c2cc(OC)c(OC)c(OC)c2)s1` [8m, (4-Amino-2-((2-methoxybenzyl)amino)thiazol-5-yl)(3,4,5-trimethoxyphenyl)methanone]: the 50% inhibitory concentration (IC50) in the series with SK-MEL-1 is 10.4 ± 2.8 µM; in the series on U-937, 13.6 ± 5.3 µM. In addition, in the series with U-937, the “fold more potent than p-methoxy counterpart 8j” value is on record as 2 fold.
The molecule `COc1ccc(CNc2nc(N)c(C(=O)c3cc(OC)c(OC)c(OC)c3)s2)cc1OC` [8n, (4-Amino-2-((3,4-dimethoxybenzyl)amino)thiazol-5-yl)(3,4,5-trimethoxyphenyl)methanone] returned a melting point of 107 to 111 °C. Also, the IC50 in the series on SK-MEL-1 came out at 32.7 ± 7.7 µM. For the same molecule, the midpoint of inhibition in the series with U-937, the IC50, lay at 28.7 ± 10.5 µM.
Taken in the same sequence, the figures for `COc1cc(C(=O)c2sc(NCc3ccc4c(c3)OCO4)nc2N)cc(OC)c1OC` [8o, (4-Amino-2-((benzo[d][1,3]dioxol-5-ylmethyl)amino)thiazol-5-yl)(3,4,5-trimethoxyphenyl) methanone] were 156 to 158 °C, 24.7 ± 1 µM and 27 ± 0.9 µM.
`COc1cccc2c1C(=O)c1c(O)c3c(c(O)c1C2=O)C[C@@](O)(C(=O)CO)C[C@@H]3O[C@H]1C[C@H](N)[C@H](O)[C@H](C)O1` [Doxorubicin, reference compound]: the half-inhibitory concentration (IC50) in the series with SK-MEL-1 amounted to 0.274 ± 0.07 µM; in the series on U-937 it was 0.083 ± 0.021 µM.
For `COc1cc([C@@H]2c3cc4c(cc3[C@@H](O[C@@H]3O[C@@H]5CO[C@@H](C)O[C@H]5[C@H](O)[C@H]3O)[C@H]3COC(=O)[C@H]23)OCO4)cc(OC)c1O` [Etoposide, reference compound], the IC50 was 6.3 ± 1 µM with SK-MEL-1 and 2.1 ± 0.4 µM in the series on U-937.
